Here are results for 81 compounds from PMC12040169 (PLOS Biology, 2025).

The structures appear in SMILES notation.

A short description of the data set: in vitro. Particulars: human, hela cells, % viability.

Usually viability stands for a read-out of living cells in per cent, often relative to untreated cells. In the case of `COc1ccc(S(=O)(=O)Nc2c(C(=O)N3CCOCC3)sc3ncccc23)cc1OC` [CBK050005], the viability at 28.5 h, 10 µM came to 108%.

Regarding `Nc1ncnc2c1ncn2C1OC(CO)C(O)C1O` (stereo not drawn) [CBK024679], the viability at 28.5 h, 10 µM was 92.6%.

`OC(CN1CCC(O)(c2cccc(C(F)(F)F)c2)CC1)c1ccccc1` (stereo not drawn) [CBK286324]: the viability at 28.5 h, 10 µM was 109%.

For `CCOC(=O)CCSc1c(CC)c(C)nc2ccccc12` [CBK153457T], the viability at 28.5 h, 10 µM was 93.5%.

Consider `CC(=O)Nc1ccc(NC(=O)c2cc(-c3ccc(Cl)cc3Cl)nc3ccccc23)cc1` [CBK265080], for which the viability at 28.5 h, 10 µM turned out to be 80.8%.

`O=C(Nc1nc2ccccc2[nH]1)c1cccc(N2CCCS2(=O)=O)c1` [CBK304584]: the viability at 28.5 h, 10 µM came out at 100%.

For the compound `CCOc1ccccc1NC(=O)NCc1cccnc1` [CBK267026], the viability at 28.5 h, 10 µM worked out at 107%.

For the compound `O=C(COc1ccccc1)Nc1ccc2oc(-c3cccnc3)nc2c1` [CBK262959], the viability at 28.5 h, 10 µM came to 92.1%.

As for `CC1Cc2cc(C(O)CN3CCCCC3)ccc2N1C(=O)C1CC1` (stereo not drawn) [CBK283144], the viability at 28.5 h, 10 µM was found to be 97.4%.

In the case of `CCN1CCN(CCNC(=O)Nc2ccccc2C)CC1` [CBK267842], the viability at 28.5 h, 10 µM was found to be 108%.

Regarding `Cc1ccc(S(=O)(=O)NC(C)(C)C)cc1C(=O)N(C)Cc1cnn(C)c1` [CBK305433], the viability at 28.5 h, 10 µM is 86.9%.

For `CCOCCCNC(=O)c1cnn2c(C)c(Cc3cccnc3)c(C)nc12` [CBK162152], the viability at 28.5 h, 10 µM is 100%.

Consider `O=S(=O)(Nc1cccc(C(F)(F)F)c1)c1ccc(N2CCCNCC2)c2ccccc12` [CBK003929C], for which the viability at 28.5 h, 10 µM was found to be 86.4%.

In the case of `O=C(NC1CC2(CCOCC2)Oc2ccccc21)c1cccs1` (stereo not drawn) [CBK285377], the viability at 28.5 h, 10 µM came out at 85.6%.

As to `CC(C)(C#N)c1ccccc1CN1CCCCC1c1[nH]ncc1C(N)=O` (stereo not drawn) [CBK304740], the viability at 28.5 h, 10 µM amounted to 108%.

Consider `CCc1nn(CC(=O)NC2CCC2)c(=O)c2cc3ccsc3n12` [CBK284136], for which the viability at 28.5 h, 10 µM was 88.9%.

For `COc1ccc(CNC(=O)CCn2c(=O)oc3ccccc32)cc1` [CBK270138], the viability at 28.5 h, 10 µM was 92.7%.

As to `Cc1c(C(=O)NCCCCn2ccnc2)oc2c(C)cccc12` [CBK283315], the viability at 28.5 h, 10 µM was determined as 99.9%.

As to `CCOC(=O)c1ccccc1NC(=O)N(Cc1ccc2ccccc2c1)CC1CCNCC1` [CBK049769], the viability at 28.5 h, 10 µM is 98.3%.

In the case of `Cc1ccc(N2NC(=O)/C(=C/c3ccc(-c4ccc5c(c4)C(=O)NC5=O)o3)C2=O)cc1C` [CBK262963], the viability at 28.5 h, 10 µM amounted to 81.6%.

Consider `CN(C1=NS(=O)(=O)c2ccccc21)c1ccccc1C(=O)O` [CBK287094], for which the viability at 28.5 h, 10 µM amounted to 90%.

Regarding `COc1cc(C)c(C)cc1S(=O)(=O)n1ccnc1C` [CBK287579], the viability at 28.5 h, 10 µM is 108%.

Take `O=C1Nc2ccccc2C1Cc1cccc(OC(F)F)c1` (stereo not drawn) [CBK287892]: the viability at 28.5 h, 10 µM worked out at 95%.

As to `C=C(C)Cn1c(SCC(C)C)nnc1-c1ccccc1OC(F)(F)F` [CBK200080], the viability at 28.5 h, 10 µM is 97.7%.

As to `COC(=O)c1c(C)[nH]c(C(=O)N2CCCC2c2cccnc2)c1C` (stereo not drawn) [CBK296639], the viability at 28.5 h, 10 µM turned out to be 98.8%.

On to `OC(CNc1nccnc1-c1cccc(C(F)(F)F)c1)COc1ccccc1` (stereo not drawn) [CBK037010], for which the viability at 28.5 h, 10 µM was 89.9%.

Turning to `COc1cc(-c2nccnc2NCC2CCCCC2)cc(OC)c1OC` [CBK037647], the viability at 28.5 h, 10 µM was 93.9%.

On to `C[C@@H](c1ccccc1)N1C(=O)[C@@H]2CN(C(=O)COCC(=O)O)CCN2C1=O` [CBK289636], for which the viability at 28.5 h, 10 µM is 94.3%.

`CCOc1ccc(-c2cncc(N3CCN(C(=O)c4ccco4)CC3)n2)cc1` [CBK065860]: the viability at 28.5 h, 10 µM came to 109%.

On to `CN(CCO)C(=O)CCn1c(C(F)F)cc2cccnc21` [CBK282805], for which the viability at 28.5 h, 10 µM came to 91.9%.

Consider `COc1ccc(CC(=O)N2CCN(C(C)c3nc4ccccc4s3)CC2)cc1F` (stereo not drawn) [CBK297733], for which the viability at 28.5 h, 10 µM was 95.9%.

Regarding `O=C(O)CC1C(=O)NCCN1C1Cc2ccccc2C1` (stereo not drawn) [CBK270089], the viability at 28.5 h, 10 µM was 88.2%.

On to `c1ccc(CSc2ncnc3c2oc2ccccc23)cc1` [CBK287398], for which the viability at 28.5 h, 10 µM is 103%.

For `CN(Cc1cccc(Oc2ccccc2)c1)Cc1cccc2ccccc12` [CBK261857], the viability at 28.5 h, 10 µM is 96.9%.

Turning to `Cc1cc(OC(C)C(=O)Nc2nnc[nH]2)ccc1Cl` (stereo not drawn) [CBK269731], the viability at 28.5 h, 10 µM is 87%.

For `O=S(=O)(Nc1cccc2[nH]ccc12)c1ccc(Br)cc1F` [CBK153547], the viability at 28.5 h, 10 µM came out at 80.6%.

With `NC(=O)CN(CC(N)=O)S(=O)(=O)c1ccccc1` [CBK262490], the viability at 28.5 h, 10 µM is 85.4%.

With `CC1CCCCN1Cc1ccc(-c2nnn(CC(=O)NCc3ccco3)n2)cc1` (stereo not drawn) [CBK122002], the viability at 28.5 h, 10 µM is 96%.

As to `CC(C)OC(=O)CSc1nnc(-c2cnccn2)n1Cc1ccco1` [CBK267586], the viability at 28.5 h, 10 µM was 117%.

On to `N[C@H]1CO[C@H]2[C@@H]1OC[C@@H]2n1cc(-c2ccccc2)nn1` [CBK289502], for which the viability at 28.5 h, 10 µM stood at 81.6%.

With `CCN(CC(=O)NC(C)C)Cc1csc(-c2ccc(F)cc2)n1` [CBK305849], the viability at 28.5 h, 10 µM was determined as 117%.

Take `COc1c(S(=O)(=O)N2CCN(Cc3ccc4c(c3)OCO4)CC2)ccc(Cl)c1Cl` [CBK074423]: the viability at 28.5 h, 10 µM was 91.8%.

Regarding `COCCNc1cc(-c2cccc(F)c2C(N)=O)c2cc[nH]c2n1` [CBK307682], the viability at 28.5 h, 10 µM stood at 94.2%.

As for `O=P(O)(CCc1ccccc1)CN1CCCCC1` [CBK262318], the viability at 28.5 h, 10 µM is 78.6%.

In the case of `COc1cc(C=O)ccc1OC(=O)c1cn(-c2ccccc2)nc1-c1cccnc1` [CBK264255], the viability at 28.5 h, 10 µM was 89.6%.

Consider `Cc1no[n+]([O-])c1COc1cccc(/C=C2\N=C(c3ccccc3)OC2=O)c1` [CBK263454], for which the viability at 28.5 h, 10 µM was found to be 96.3%.

For the compound `OC(CN1CCC(Oc2ccccc2F)CC1)c1cccs1` (stereo not drawn) [CBK281433], the viability at 28.5 h, 10 µM stood at 95.2%.

As to `Cc1ccc(NC(=O)c2nccc3ccccc23)c(C)n1` [CBK200294], the viability at 28.5 h, 10 µM came out at 93.2%.

As for `Oc1cc(C(F)(F)F)nc(Nc2ccccc2)n1` [CBK000517], the viability at 28.5 h, 10 µM was found to be 89.3%.

Consider `CC(=O)Nc1ccc(NC(=O)CCCC(=O)O)cc1` [CBK260984], for which the viability at 28.5 h, 10 µM was 104%.

On to `Cc1ccccc1OCC(=O)Nc1ccc(CSc2ccccc2)cc1` [CBK264651], for which the viability at 28.5 h, 10 µM is 93%.

As for `CCc1nn2c(=O)cc(CNc3ccccc3CN(C)C(C)=O)nc2s1` [CBK305604], the viability at 28.5 h, 10 µM turned out to be 114%.

As to `CC(C)n1ccnc1CN1CCn2nc(CNc3cnccn3)cc2C1` [CBK306902], the viability at 28.5 h, 10 µM was 98.7%.

For `OCCN1CCN(c2nccnc2-c2cccs2)CC1` [CBK088811], the viability at 28.5 h, 10 µM came to 106%.

For the compound `O=S(=O)(Nc1nccnc1-c1ccc2c(c1)OCO2)c1cccc(Cl)c1` [CBK050951], the viability at 28.5 h, 10 µM came to 92.4%.

With `O=C(Nc1cncc(OC2CCNCC2)n1)c1cnccn1` [CBK036372T], the viability at 28.5 h, 10 µM came to 93%.

For `Cc1c(N)c(=O)n2nc(C(F)(F)F)nc2n1C` [CBK020172], the viability at 28.5 h, 10 µM was 90.4%.

Turning to `Cc1nc(C2CCN(C(=O)CCC3CCCO3)CC2)c2sccn12` (stereo not drawn) [CBK282240], the viability at 28.5 h, 10 µM was found to be 106%.

For the compound `N#Cc1ccsc1NS(=O)(=O)c1ccc(Cl)c(Cl)c1` [CBK034735], the viability at 28.5 h, 10 µM stood at 95%.

As to `CCCc1c(C)nc2ccc(C)cc2c1SCC(=O)O` [CBK263537], the viability at 28.5 h, 10 µM worked out at 88.6%.

For the compound `O=C(Nc1ccc2[nH]ccc2c1)c1ccc(OC(F)(F)F)cc1` [CBK159688], the viability at 28.5 h, 10 µM worked out at 61.5%.

As for `C/C(=N\NC(=O)c1ccc(CN2CCOCC2)cc1)c1ccc2c(c1)OCCO2` [CBK262755], the viability at 28.5 h, 10 µM turned out to be 92%.

With `O=C1COc2ccccc2C/C=C/CC2(CCN(CC(=O)N3CCCC3)CC2)CN1` [CBK292126], the viability at 28.5 h, 10 µM was 93.7%.

In the case of `Cc1ccccc1C1NC(=O)NC2=C1C(=O)N(C)C2` (stereo not drawn) [CBK288026], the viability at 28.5 h, 10 µM was 96.8%.

Regarding `CSc1ccc(CN(CCO)CCO)cc1` [CBK261931], the viability at 28.5 h, 10 µM was 98.6%.

Consider `Cc1ccc(C2=CCN(CC(=O)N3CCc4ccccc43)CC2)o1` [CBK283918], for which the viability at 28.5 h, 10 µM stood at 88.1%.

For the compound `CCC1CCC2(CC1)NC(=O)N(Cc1nc(-c3cccs3)no1)C2=O` (stereo not drawn) [CBK305005], the viability at 28.5 h, 10 µM was found to be 92.6%.

With `CN1CCC(N2CCN(C(=O)Nc3ccc4c(c3)OCCO4)CC2)CC1` [CBK155898], the viability at 28.5 h, 10 µM worked out at 87%.

For the compound `FC(F)(F)c1cccc(OCCCc2ccncc2)n1` [CBK115795], the viability at 28.5 h, 10 µM was 98.8%.

With `Cc1nn(-c2nc3ccccc3s2)c(O)c1C` [CBK270254], the viability at 28.5 h, 10 µM was 87.8%.

Take `Nc1ncc(-c2ccccc2)nc1-c1ccc(O)cc1` [CBK064030]: the viability at 28.5 h, 10 µM stood at 96.7%.

For the compound `Cc1nn(Cc2c(F)cccc2Cl)c(C)c1NC(=O)c1cnn2c(C(F)F)cc(-c3ccccc3)nc12` [CBK267634], the viability at 28.5 h, 10 µM is 95.3%.

As for `Cc1nnc(CS(=O)(=O)Cc2csc(C(C)(C)C)n2)n1C1CC1` [CBK305489], the viability at 28.5 h, 10 µM turned out to be 109%.

Take `O=C(NCC1(c2cccc(Br)c2)CCOCC1)C1CC(O)CN1` (stereo not drawn) [CBK304257]: the viability at 28.5 h, 10 µM was determined as 95.9%.

Take `COc1ccc(N2C(=O)C3C(CC(C)C)NC4(C(=O)N(CC(=O)Nc5ccc(C)cc5)c5ccccc54)C3C2=O)cc1` (stereo not drawn) [CBK266034]: the viability at 28.5 h, 10 µM was determined as 95.9%.

Turning to `Fc1ccc(CN(Cc2ccco2)C2CCN(c3ccc4c(c3)OCO4)CC2)cc1` [CBK286197], the viability at 28.5 h, 10 µM worked out at 88.7%.

`COc1ccc(N2CCN(Cc3cc([N+](=O)[O-])ccc3Cl)CC2)cc1` [CBK261571]: the viability at 28.5 h, 10 µM turned out to be 88.9%.

Take `Nc1nc2c(ccn2[C@@H]2O[C@H](CO)[C@H](O)C2O)c(=O)[nH]1` (stereo partly drawn) [CBK201190]: the viability at 28.5 h, 10 µM was determined as 92%.

For `COc1cccc(CNCc2ccccc2[N+](=O)[O-])c1OC` [CBK262198], the viability at 28.5 h, 10 µM worked out at 98%.

For `COCCCNC(=O)c1cnn2c(C)c(Cc3ccccc3)c(C)nc12` [CBK162216], the viability at 28.5 h, 10 µM turned out to be 94.6%.

Regarding `O=C1N(Cc2ccc(Br)cc2)CCc2cncn21` [CBK021187], the viability at 28.5 h, 10 µM worked out at 79.7%.
